Assay results published in EP2677026A1, “Keratinocyte minimal growth medium and use thereof in an in vitro method for identifying compounds capable of improving skin and hair physiology” (Merz Pharma GmbH & Co. KGaA, priority 2012, dated 2013).
Where two headings read alike, the source gives them in different places.

What was measured:
[1] = tested on: NHEK (normal human epidermal keratinocytes); assay: Minimal growth assay: proliferation by DNA amount (CyQuant Direct Cell Proliferation Assay kit) of NHEK in MGM plus test compounds; format: cell-based; conditions: NHEK in MGM plus single compound or combination; MGM control set 100%
Experimental: Alternatively, cell number was directly assessed by measuring the amount of DNA using the CyQuant® Direct Cell Proliferation Assay kit (Invitrogen). In brief, the two CyQuant® kit solutions were mixed and added to the respective culture medium as described by the supplier. The fluorescence of the DNA intercalating CyQuant® Dye, representing the amount of cells, was recorded at 480Ex/535Em nm using a Synergy™ H4 plate reader (BioTek Instruments). Increase of the number of cells is used as indirect indicator of cell proliferation.
Mean values of relative fluorescence/luminescence units (RFU/RLU) and standard deviation of replicates were analysed by Gene5 software. For a better estimation of test compound's potential metabolic activity and proliferation measured in MGM were set as 100%. Statistical significance was assessed by comparing mean (+/-SD) values with Student's t-test for independent groups.
For measurements of metabolic activity and proliferation, NHEK were seeded at 30,000 cells/cm^2 into a 48-well microtiter flat bottom plate. After over night incubation growth medium 2 was replaced by BM, MGM, and MGM plus test compounds. The test compounds were dissolved in DMSO, diluted into MGM and added to the cells. 4 to 6 replicates/concentration were tested. […]

[2] = tested on: NHEK (normal human epidermal keratinocytes); assay: Minimal growth assay: metabolic activity by resazurin assay of NHEK cultivated in minimal growth medium (MGM) plus test compound; format: cell-based; conditions: for metabolic activity/cell number compared to the MGM control: highest value of the dose-dependent increase; for dose-depending increase of metabolic activity/cell number compared to the MGM control: 48 h and 72 h, increasing concentrations in MGM; for activity at 100 µM: 100 µm test compound
Experimental: Metabolic activity was measured by a resazurin assay. In this assay, non-fluorescent resazurin is reduced to fluorescent resorufin in viable cells only. The resulting signal is proportional to the number of cells present and, thus, is an indirect measure of cell number. The assay was carried out by diluting a resazurin (Sigma) stock solution (0,1 mg/ml in PBS) in the respective culture medium at a ratio of 1:11. The resazurin conversion to the fluorescent resorufin by metabolically active cells was recorded at 560Ex/590Em nm using a Synergy™ H4 plate reader (BioTek Instruments). Mean values of relative fluorescence/luminescence units (RFU/RLU) and standard deviation of replicates were analysed by Gene5 software. […] Statistical significance was assessed by comparing mean (+/-SD) values with Student's t-test for independent groups. NHEK were seeded at 30.000 cells/cm^2 into 48-well flat bottom tissue culture plates and cultured in normal keratinocyte growth medium ("GM") at 37°C and 5% CO2. After 12 to 15 h (typically over night) the media was exchanged to MGM with different concentrations of test compound. Controls receive MGM without compounds. Test compounds 1 to 4 (1: […] Ca^2+-pantothenate; 4: folic acid) were prepared according to Table 1 to yield respective stock solutions. The stock solutions were further diluted in minimal growth media (MGM) to obtain different test compound concentrations. […] The negative control wells contained media only plus the respective solvent. Table 1. Test compound and control solutions […] The test compounds were dissolved in DMSO, diluted into MGM and added to the cells. 4 to 6 replicates/concentration were tested. […] Metabolic activity after 48 h (see FIG. 4) and 72 h after incubation (see FIG. 5) was determined by the resazurin assay, and proliferation after 48 h and 72 h after incubation was measured using the CyQuant® Direct Cell Proliferation Assay kit (data not shown).

[3] = after 48 h, MGM control set 100%
[4] = after 72 h, MGM control set 100%
[5] = Homo sapiens, NHEK, after 72 h, MGM control set 100%, read-out: metabolic activity compared to the MGM control

SMILES | proliferation (DNA amount) compared to the MGM control [1] [%] | metabolic activity/cell number compared to the MGM control [2, 3] | metabolic activity/cell number compared to the MGM control [2, 4] | dose-depending increase of metabolic activity/cell number compared to the MGM control [2] | activity at 100 µM ([2]; Homo sapiens, NHEK, after 48 h, MGM control set 100%, read-out: metabolic activity compared to the MGM control) [%] | activity at 100 µM [2, 5] [%] | activity at 5 µM ([2]; Homo sapiens, NHEK, 5 µm test compound, after 48 h, MGM control set 100%, read-out: metabolic activity compared to the MGM control) [%]
N[C@@H](CSSC[C@H](N)C(=O)O)C(=O)O [L-cystine] | 282 | up to 265% | up to 419% | – | – | – | –
Cc1ncc(C[n+]2csc(CCO)c2C)c(N)n1 [Thiamin, thiamine] | – | up to 138% | up to 163% | – | – | – | –
Nc1nc2ncc(CNc3ccc(C(=O)N[C@@H](CCC(=O)O)C(=O)O)cc3)nc2c(=O)[nH]1 [folic acid] | – | – | – | did not demonstrate a dose-depending increase | 113 | 118 | –
CC(C)(CO)[C@@H](O)C(=O)NCCC(=O)O [pantothenate, Ca^2+-pantothenate] | – | – | – | did not show a dose-depending increase | – | 110 | 111
